How the values were obtained:
Experiment in all cases: EC50 assay: Ba/F3 stable cell proliferation (CCK-8, 72 h)
Format in all cases: cell-based
Ba/F3 stable cells [1] = target: T1, Ba/F3 stable cells (Homo sapiens, UniProt P00533, T790M/L858R, cells depend on it); conditions: Ba/F3-EGFR L858R-T790M cells
T1 construct: EC50 Ba/F3-EGFR L858R-T790M; other: Ba/F3-EGFR L858R-T790M cells, 72 h, CCK-8
Outline: (§1)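 Ba/F3 stable cells were seeded at 4,000 cells/90 μL/well in 96-well plates and held 2 h at 37° C. in 5% CO2, then given 10 μL of serially titrated compound (0.1% DMSO final). After 72 h at 37° C., CCK-8 reagent was added for 4 hours and absorbance read at 450 nm to derive EC50.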

Ba/F3 stable cells [2] = target: T2, Ba/F3 stable cells (Homo sapiens, UniProt P00533, INS763FQEA, cells depend on it); conditions: Ba/F3-EGFR A763-Y764insFQEA cells
T2 construct: EC50 Ba/F3-EGFR A763-Y764insFQEA; other: Ba/F3-EGFR A763-Y764insFQEA cells, 72 h, CCK-8
Outline: as §1

Ba/F3 stable cells [3] = target: T3, Ba/F3 stable cells (Homo sapiens, UniProt P00533, DUP767-769, cells depend on it); conditions: Ba/F3-EGFR V769-D770insASV cells
T3 construct: EC50 Ba/F3-EGFR V769-D770insASV; other: Ba/F3-EGFR V769-D770insASV cells, 72 h, CCK-8
Outline: as §1

Ba/F3 stable cells [4] = target: T4, Ba/F3 stable cells (Homo sapiens, UniProt P04626, DUP772-775, cells depend on it); conditions: Ba/F3-HER2 A775-G776insYVMA cells
T4 construct: EC50 Ba/F3-HER2 A775-G776insYVMA; other: Ba/F3-HER2 A775-G776insYVMA cells, 72 h, CCK-8
Outline: as §1

Ba/F3 stable cells [5] = target: T5, Ba/F3 stable cells (Homo sapiens, UniProt P00533, DUP771-773, cells depend on it); conditions: Ba/F3-EGFR H773-V774insNPH cells
T5 construct: EC50 Ba/F3-EGFR H773-V774insNPH; other: Ba/F3-EGFR H773-V774insNPH cells, 72 h, CCK-8
Outline: as §1

Ba/F3 stable cells [6] = target: T6, Ba/F3 stable cells (Homo sapiens, UniProt P00533, DUP768-770, cells depend on it); conditions: Ba/F3-EGFR D770-N771insSVD cells
T6 construct: EC50 Ba/F3-EGFR D770-N771insSVD; other: Ba/F3-EGFR D770-N771insSVD cells, 72 h, CCK-8
Outline: as §1

T5 sequence (P00533 with tags, fused parts or gaps DUP771-773): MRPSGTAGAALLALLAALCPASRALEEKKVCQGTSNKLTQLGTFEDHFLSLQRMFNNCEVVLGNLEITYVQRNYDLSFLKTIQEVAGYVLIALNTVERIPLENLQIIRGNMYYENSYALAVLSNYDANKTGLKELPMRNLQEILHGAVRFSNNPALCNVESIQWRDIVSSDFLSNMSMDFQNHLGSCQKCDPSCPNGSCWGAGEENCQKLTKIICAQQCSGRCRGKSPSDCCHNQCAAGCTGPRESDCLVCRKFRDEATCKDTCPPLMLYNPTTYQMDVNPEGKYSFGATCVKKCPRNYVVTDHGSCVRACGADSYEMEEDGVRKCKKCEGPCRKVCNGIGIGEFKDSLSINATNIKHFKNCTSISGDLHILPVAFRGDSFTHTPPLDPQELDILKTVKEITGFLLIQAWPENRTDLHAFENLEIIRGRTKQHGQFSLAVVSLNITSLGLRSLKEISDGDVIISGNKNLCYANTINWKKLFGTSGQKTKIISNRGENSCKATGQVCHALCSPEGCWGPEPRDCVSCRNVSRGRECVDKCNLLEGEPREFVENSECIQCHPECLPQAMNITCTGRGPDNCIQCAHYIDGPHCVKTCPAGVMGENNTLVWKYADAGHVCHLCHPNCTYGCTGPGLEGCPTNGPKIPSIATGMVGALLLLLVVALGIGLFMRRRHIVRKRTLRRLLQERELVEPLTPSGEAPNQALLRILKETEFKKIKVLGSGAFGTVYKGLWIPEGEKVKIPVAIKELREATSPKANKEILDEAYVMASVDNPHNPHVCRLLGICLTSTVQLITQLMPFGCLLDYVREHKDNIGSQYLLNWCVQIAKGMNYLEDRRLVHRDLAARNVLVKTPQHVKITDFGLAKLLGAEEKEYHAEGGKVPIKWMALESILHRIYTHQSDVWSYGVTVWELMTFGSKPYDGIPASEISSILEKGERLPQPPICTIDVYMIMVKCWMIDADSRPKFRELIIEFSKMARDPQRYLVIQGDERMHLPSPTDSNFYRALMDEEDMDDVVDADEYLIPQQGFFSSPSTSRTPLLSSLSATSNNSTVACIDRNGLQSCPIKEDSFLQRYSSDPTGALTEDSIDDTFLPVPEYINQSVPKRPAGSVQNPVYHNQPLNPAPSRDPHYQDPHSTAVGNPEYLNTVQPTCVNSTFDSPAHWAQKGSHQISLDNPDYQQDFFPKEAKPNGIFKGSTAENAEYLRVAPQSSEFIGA
T4 sequence (P04626 with tags, fused parts or gaps DUP772-775): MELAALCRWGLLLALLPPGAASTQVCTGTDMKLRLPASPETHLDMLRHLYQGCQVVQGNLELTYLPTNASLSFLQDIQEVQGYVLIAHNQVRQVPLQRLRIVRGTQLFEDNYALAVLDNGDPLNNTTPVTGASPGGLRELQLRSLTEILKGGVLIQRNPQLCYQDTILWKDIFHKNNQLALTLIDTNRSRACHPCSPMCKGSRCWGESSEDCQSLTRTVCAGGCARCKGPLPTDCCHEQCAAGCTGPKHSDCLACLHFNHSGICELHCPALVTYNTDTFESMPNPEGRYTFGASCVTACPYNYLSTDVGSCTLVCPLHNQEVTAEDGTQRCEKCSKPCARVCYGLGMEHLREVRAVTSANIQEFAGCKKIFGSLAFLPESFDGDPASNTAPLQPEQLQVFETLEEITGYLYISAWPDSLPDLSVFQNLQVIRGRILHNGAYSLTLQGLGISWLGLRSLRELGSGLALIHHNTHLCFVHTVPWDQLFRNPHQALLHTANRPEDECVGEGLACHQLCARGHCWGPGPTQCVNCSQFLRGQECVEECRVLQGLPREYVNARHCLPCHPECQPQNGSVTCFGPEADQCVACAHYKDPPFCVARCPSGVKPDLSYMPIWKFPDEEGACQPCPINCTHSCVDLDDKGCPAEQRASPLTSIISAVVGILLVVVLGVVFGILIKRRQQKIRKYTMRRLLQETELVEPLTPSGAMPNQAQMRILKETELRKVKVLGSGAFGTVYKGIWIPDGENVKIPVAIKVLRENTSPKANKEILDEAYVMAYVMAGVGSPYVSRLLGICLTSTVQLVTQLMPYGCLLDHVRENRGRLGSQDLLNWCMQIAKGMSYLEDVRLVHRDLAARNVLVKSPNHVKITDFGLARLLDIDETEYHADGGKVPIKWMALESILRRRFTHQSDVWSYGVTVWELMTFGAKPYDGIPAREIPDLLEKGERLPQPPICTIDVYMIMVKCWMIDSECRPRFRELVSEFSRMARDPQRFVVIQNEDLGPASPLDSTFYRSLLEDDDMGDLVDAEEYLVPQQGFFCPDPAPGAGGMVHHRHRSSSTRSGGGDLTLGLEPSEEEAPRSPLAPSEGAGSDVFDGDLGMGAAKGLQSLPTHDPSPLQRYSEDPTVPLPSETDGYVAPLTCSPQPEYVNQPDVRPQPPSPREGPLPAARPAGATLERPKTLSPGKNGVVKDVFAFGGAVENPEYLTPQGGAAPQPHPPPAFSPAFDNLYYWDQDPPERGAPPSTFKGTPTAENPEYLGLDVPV
T3 sequence (P00533 with tags, fused parts or gaps DUP767-769): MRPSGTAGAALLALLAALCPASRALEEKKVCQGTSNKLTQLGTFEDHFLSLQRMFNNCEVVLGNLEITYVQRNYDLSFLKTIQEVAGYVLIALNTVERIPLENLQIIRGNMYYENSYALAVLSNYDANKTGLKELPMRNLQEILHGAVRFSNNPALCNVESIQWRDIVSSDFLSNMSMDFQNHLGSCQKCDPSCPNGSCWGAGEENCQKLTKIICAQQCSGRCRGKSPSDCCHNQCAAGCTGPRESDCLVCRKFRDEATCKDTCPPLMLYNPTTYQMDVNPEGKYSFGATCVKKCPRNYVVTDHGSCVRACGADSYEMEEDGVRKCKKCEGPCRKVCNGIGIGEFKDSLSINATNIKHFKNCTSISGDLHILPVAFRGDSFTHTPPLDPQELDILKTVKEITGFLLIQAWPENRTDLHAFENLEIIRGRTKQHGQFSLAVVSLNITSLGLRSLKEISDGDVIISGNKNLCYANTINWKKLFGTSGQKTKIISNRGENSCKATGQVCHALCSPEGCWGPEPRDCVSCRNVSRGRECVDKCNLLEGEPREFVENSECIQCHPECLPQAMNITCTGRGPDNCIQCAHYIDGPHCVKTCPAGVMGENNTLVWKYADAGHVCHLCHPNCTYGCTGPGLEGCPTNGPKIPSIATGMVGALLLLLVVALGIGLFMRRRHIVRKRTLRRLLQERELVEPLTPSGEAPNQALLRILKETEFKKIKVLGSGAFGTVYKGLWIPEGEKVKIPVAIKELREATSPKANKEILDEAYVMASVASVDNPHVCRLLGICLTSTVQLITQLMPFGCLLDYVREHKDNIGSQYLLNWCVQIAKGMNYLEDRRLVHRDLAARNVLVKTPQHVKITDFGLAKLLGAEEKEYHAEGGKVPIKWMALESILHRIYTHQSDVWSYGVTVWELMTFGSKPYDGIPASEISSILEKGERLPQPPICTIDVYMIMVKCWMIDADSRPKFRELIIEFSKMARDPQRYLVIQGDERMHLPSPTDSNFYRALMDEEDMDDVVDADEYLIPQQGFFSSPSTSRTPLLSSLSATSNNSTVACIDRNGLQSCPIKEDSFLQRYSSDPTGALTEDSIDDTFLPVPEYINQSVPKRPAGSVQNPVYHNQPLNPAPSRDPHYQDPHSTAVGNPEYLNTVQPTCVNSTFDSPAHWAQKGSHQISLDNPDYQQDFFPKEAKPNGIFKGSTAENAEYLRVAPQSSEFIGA
T2 sequence (P00533 with tags, fused parts or gaps INS763FQEA): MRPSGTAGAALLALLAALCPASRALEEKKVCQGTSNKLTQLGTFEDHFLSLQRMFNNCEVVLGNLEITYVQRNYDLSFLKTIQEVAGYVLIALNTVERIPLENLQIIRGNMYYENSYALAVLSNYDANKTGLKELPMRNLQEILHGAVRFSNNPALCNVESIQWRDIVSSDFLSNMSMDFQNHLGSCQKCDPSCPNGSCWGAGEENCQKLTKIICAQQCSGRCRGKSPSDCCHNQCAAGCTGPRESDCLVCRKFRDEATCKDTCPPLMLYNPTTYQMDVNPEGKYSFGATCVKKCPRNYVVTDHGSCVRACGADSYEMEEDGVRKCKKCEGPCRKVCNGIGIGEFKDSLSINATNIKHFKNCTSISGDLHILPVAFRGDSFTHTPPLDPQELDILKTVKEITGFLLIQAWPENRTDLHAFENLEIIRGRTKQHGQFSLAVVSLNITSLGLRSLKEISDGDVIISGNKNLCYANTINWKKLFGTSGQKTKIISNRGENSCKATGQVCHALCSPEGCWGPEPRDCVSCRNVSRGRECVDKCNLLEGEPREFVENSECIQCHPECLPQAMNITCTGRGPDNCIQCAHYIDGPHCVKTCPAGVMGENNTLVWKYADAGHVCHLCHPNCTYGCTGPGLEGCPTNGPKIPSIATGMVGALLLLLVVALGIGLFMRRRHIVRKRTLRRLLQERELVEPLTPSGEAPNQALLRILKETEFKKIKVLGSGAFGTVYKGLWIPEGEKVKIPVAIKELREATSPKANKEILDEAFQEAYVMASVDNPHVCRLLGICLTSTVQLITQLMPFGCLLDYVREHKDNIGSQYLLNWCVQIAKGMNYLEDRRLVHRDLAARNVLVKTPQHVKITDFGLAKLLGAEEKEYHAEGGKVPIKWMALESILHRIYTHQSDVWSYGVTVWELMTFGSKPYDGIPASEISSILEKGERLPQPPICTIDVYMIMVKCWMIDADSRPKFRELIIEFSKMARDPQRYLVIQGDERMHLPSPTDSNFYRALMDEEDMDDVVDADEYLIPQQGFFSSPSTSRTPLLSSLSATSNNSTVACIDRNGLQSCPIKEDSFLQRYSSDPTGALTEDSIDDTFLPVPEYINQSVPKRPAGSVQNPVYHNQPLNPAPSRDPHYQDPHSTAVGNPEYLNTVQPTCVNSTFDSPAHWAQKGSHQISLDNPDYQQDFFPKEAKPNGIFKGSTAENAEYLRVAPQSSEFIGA

EC50 (Ba/F3 stable cells [1]) [nM]	EC50 (Ba/F3 stable cells [2]) [nM]	EC50 (Ba/F3 stable cells [3]) [nM]	EC50 (Ba/F3 stable cells [4]) [nM]	EC50 (Ba/F3 stable cells [5]) [nM]	EC50 (Ba/F3 stable cells [6]) [nM]	Compound
200 to 1000	≤ 200	200 to 1000	≤ 200	200 to 1000	> 1000	C=CC(=O)N1CCC(Oc2cc3c(NCc4ccccc4F)ncnc3cc2OC)CC1 [Compound 112, 1-(4-((4-((2-fluorobenzyl)amino)-7-methoxyquinazolin-6-yl)oxy)piperidin-1-yl)prop-2-en-1-one]
> 1000	≤ 200	200 to 1000	≤ 200	200 to 1000	> 1000	C=CC(=O)N1CCC(Oc2cc3c(NCc4ccc(Cl)c(F)c4)ncnc3cc2OC)CC1 [Compound 113, 1-(4-((4-((4-chloro-3-fluorobenzyl)amino)-7-methoxyquinazolin-6-yl)oxy)piperidin-1-yl)prop-2-en-1-one]
≤ 200	≤ 200	200 to 1000	≤ 200	200 to 1000	200 to 1000	C=CC(=O)N1CCC(Oc2cc3c(NCc4ccc(F)c(Cl)c4)ncnc3cc2OC)CC1 [Compound 114, 1-(4-((4-((3-chloro-4-fluorobenzyl)amino)-7-methoxyquinazolin-6-yl)oxy)piperidin-1-yl)prop-2-en-1-one]
200 to 1000	≤ 200	> 1000	≤ 200	> 1000	> 1000	C=CC(=O)N1CCC(Oc2cc3c(NCc4ccc(Cl)c(Cl)c4)ncnc3cc2OC)CC1 [Compound 115, 1-(4-((4-((3,4-dichlorobenzyl)amino)-7-methoxyquinazolin-6-yl)oxy)piperidin-1-yl)prop-2-en-1-one]
200 to 1000	≤ 200	≤ 200	≤ 200	≤ 200	200 to 1000	C=CC(=O)N1CCC(Oc2cc3c(NCc4cccc(Cl)c4F)ncnc3cc2OC)CC1 [Compound 116, 1-(4-((4-((3-chloro-2-fluorobenzyl)amino)-7-methoxyquinazolin-6-yl)oxy)piperidin-1-yl)prop-2-en-1-one]
200 to 1000	200 to 1000	> 1000	> 1000	> 1000	> 1000	C=CC(=O)N1CCC(Oc2cc3c(NCc4cc(Cl)cc(Cl)c4)ncnc3cc2OC)CC1 [Compound 117, 1-(4-((4-((3,5-dichlorobenzyl)amino)-7-methoxyquinazolin-6-yl)oxy)piperidin-1-yl)prop-2-en-1-one]
> 1000	≤ 200	> 1000	200 to 1000	> 1000	> 1000	C=CC(=O)N1CCC(Oc2cc3c(NCc4cc(Cl)ccc4F)ncnc3cc2OC)CC1 [Compound 118, 1-(4-((4-((5-chloro-2-fluorobenzyl)amino)-7-methoxyquinazolin-6-yl)oxy)piperidin-1-yl)prop-2-en-1-one]
> 1000	≤ 200	> 1000	> 1000	> 1000	> 1000	C=CC(=O)N1CCC(Oc2cc3c(NCc4cc(Cl)ccc4Cl)ncnc3cc2OC)CC1 [Compound 119, 1-(4-((4-((2,5-dichlorobenzyl)amino)-7-methoxyquinazolin-6-yl)oxy)piperidin-1-yl)prop-2-en-1-one]
200 to 1000	≤ 200	≤ 200	200 to 1000	≤ 200	≤ 200	C=CC(=O)N1CCC(Oc2cc3c(NCc4cccc(Br)c4)ncnc3cc2OC)CC1 [Compound 120, 1-(4-((4-((3-bromobenzyl)amino)-7-methoxyquinazolin-6-yl)oxy)piperidin-1-yl)prop-2-en-1-one]
200 to 1000	≤ 200	200 to 1000	200 to 1000	200 to 1000	200 to 1000	C=CC(=O)N1CCC(Oc2cc3c(NCc4cccc(C)c4)ncnc3cc2OC)CC1 [Compound 121, 1-(4-((7-methoxy-4-((3-methylbenzyl)amino)quinazolin-6-yl)oxy)piperidin-1-yl)prop-2-en-1-one]
200 to 1000	≤ 200	200 to 1000	> 1000	200 to 1000	200 to 1000	C=CC(=O)N1CCC(Oc2cc3c(NCc4cc(F)cc(Cl)c4)ncnc3cc2OC)CC1 [Compound 122, 1-(4-((4-((3-chloro-5-fluorobenzyl)amino)-7-methoxyquinazolin-6-yl)oxy)piperidin-1-yl)prop-2-en-1-one]
200 to 1000	≤ 200	≤ 200	200 to 1000	≤ 200	200 to 1000	C=CC(=O)N1CCC(Oc2cc3c(NCc4ccccc4)ncnc3cc2OC)CC1 [Compound 123, 1-(4-((4-(benzylamino)-7-methoxyquinazolin-6-yl)oxy)piperidin-1-yl)prop-2-en-1-one]
> 1000	≤ 200	> 1000	> 1000	> 1000	> 1000	C=CC(=O)N1CCC(Oc2cc3c(NCc4cccc(C#N)c4)ncnc3cc2OC)CC1 [Compound 124, 3-(((6-((1-acryloylpiperidin-4-yl)oxy)-7-methoxyquinazolin-4-yl)amino)methyl)benzonitrile]
200 to 1000	≤ 200	200 to 1000	200 to 1000	200 to 1000	200 to 1000	C=CC(=O)N1CCC(Oc2cc3c(NCc4cccc(I)c4)ncnc3cc2OC)CC1 [Compound 125, 1-(4-((4-((3-iodobenzyl)amino)-7-methoxyquinazolin-6-yl)oxy)piperidin-1-yl)prop-2-en-1-one]
> 1000	> 1000	> 1000	> 1000	> 1000	> 1000	C=CC(=O)N1CCC(Oc2cc3c(NC(C(=O)O)c4cccc(Cl)c4)ncnc3cc2OC)CC1 (stereo not drawn) [Compound 126, 2-((6-((1-acryloylpiperidin-4-yl)oxy)-7-methoxyquinazolin-4-yl)amino)-2-(3-chlorophenyl)acetic acid]
> 1000	≤ 200	200 to 1000	> 1000	> 1000	> 1000	C=CC(=O)N1CCC(Oc2cc3c(NC(C(N)=O)c4cccc(Cl)c4)ncnc3cc2OC)CC1 (stereo not drawn) [Compound 127, 2-((6-((1-acryloylpiperidin-4-yl)oxy)-7-methoxyquinazolin-4-yl)amino)-2-(3-chlorophenyl)acetamide]
> 1000	> 1000	> 1000	> 1000	> 1000	> 1000	C=CC(=O)N1CCC(Oc2cc3c(NC(CC(=O)O)c4cccc(Cl)c4)ncnc3cc2OC)CC1 (stereo not drawn) [Compound 129, 3-((6-((1-acryloylpiperidin-4-yl)oxy)-7-methoxyquinazolin-4-yl)amino)-3-(3-chlorophenyl)propanoic acid]
> 1000	≤ 200	≤ 200	200 to 1000	200 to 1000	> 1000	C=CC(=O)N1CCC(Oc2cc3c(NC(CC(N)=O)c4cccc(Cl)c4)ncnc3cc2OC)CC1 (stereo not drawn) [Compound 130, 3-((6-((1-acryloylpiperidin-4-yl)oxy)-7-methoxyquinazolin-4-yl)amino)-3-(3-chlorophenyl)propanamide]
> 1000	≤ 200	≤ 200	≤ 200	≤ 200	≤ 200	C=CC(=O)N1CCC(Oc2cc3c(NC(CCO)c4cccc(Cl)c4)ncnc3cc2OC)CC1 (stereo not drawn) [Compound 131, 1-(4-((4-((1-(3-chlorophenyl)-3-hydroxypropyl)amino)-7-methoxyquinazolin-6-yl)oxy)piperidin-1-yl)prop-2-en-1-one]
> 1000	≤ 200	200 to 1000	200 to 1000	200 to 1000	200 to 1000	C=CC(=O)N1CCCC(Oc2cc3c(Nc4ccc(Cl)c(Cl)c4F)ncnc3cc2OC)C1 (stereo not drawn) [Compound 132, 1-(3-((4-((3,4-dichloro-2-fluorophenyl)amino)-7-methoxyquinazolin-6-yl)oxy)piperidin-1-yl)prop-2-en-1-one]
> 1000	200 to 1000	> 1000	≤ 200	> 1000	> 1000	C=CC(=O)N1CCC(Oc2cc3c(Nc4ccc5c(c4)CCN5S(C)(=O)=O)ncnc3cc2OC)CC1 [Compound 134, 1-(4-((7-methoxy-4-((1-(methylsulfonyl)indolin-5-yl)amino)quinazolin-6-yl)oxy)piperidin-1-yl)prop-2-en-1-one]

— patent publication US20250243171A1, “QUINAZOLINE COMPOUNDS FOR TREATMENT OF DISEASE” (Arthrosi Therapeutics, Inc., priority 2021, published 2025)
